Reference: patent publication US20260199224A1, “Compositions comprising Sanguisorba officinalis root extract and uses thereof” (Clariant International Ltd, priority 2022, published 2026)

Legend:
[1] = tested on: bovine hyaluronidase, Type IS; assay: Anti-hyaluronidase activity, intact hyaluronic acid by BSA turbidity at 600 nm; type: biochemical; settings: 15 μM
Experimental: FDTA-I and FDTA-II were purified from stimulated roots of Sanguisorba officinalis as described in example 10. In addition, ziyuglycoside I was also included in the test. For the comparison, SORE was prepared as presented in example 1.
Hyaluronidase catalyzes the degradation reaction of hyaluronic acid (HA). The test is based on the quantification of intact HA content in the presence/absence of an extract of interest and/or compounds of interest. The degradation rate of HA content is proportional to enzymatic activity of hyaluronidase and inversely proportional to the inhibition power of the extract.
The reaction mixture was prepared as follows: 37.5 μL of 20 mM PHB buffer pH 7, 187.5 μL of hyaluronidase solution (bovine hyaluronidase, Type IS, Sigma) 0.02 mg/mL, and 25 μL of sample (SORE or pure FDTA-I and FDTA-II to be tested). In the case of table 13, the pure FDTA-I and FDTA-II as well as SORE were in pure propane-1,3-diol. In the case of table 14, the pure FDTA-I and FDTA-II were in 100% ethanol. The mixture was incubated for 10 minutes at room temperature and then 250 μL of HA substrate (0.3 mg/mL in phosphate buffer) are added to initiate the reaction. Incubation is done in a Thermomixer at 37° C., under agitation (450 rpm). The reaction was monitored for 60 minutes with a sampling of the reaction mix (50 μL) every 15 minutes. These samples were inserted into the wells of a microplate containing 200 μL of BSA solution 0.1% pH 3.75 and incubated in BSA for 10 minutes. The HA formed aggregates with the BSA solution which precipitates. Thus, the amount of precipitating BSA was proportional to the optical density at 600 nm which allows to monitor the enzymatic reaction. The microplate was finally inserted into the spectrophotometer and the optical density was measured at this wavelength.

[2] = tested on: Clostridium histolyticum collagenase (type IA); assay: Anti-collagenase activity, FALGPA degradation followed by UHPLC; type: biochemical; settings: 25 μM; for Residual activity, ActR (%) of collagenase: 30 minutes
Experimental: FDTA-I and FDTA-II were purified from stimulated roots of Sanguisorba officinalis, where the plant has been stimulated by using a nutrient medium without nitrogen (N/P/K 0/15/40) for 1 to 3 weeks. 10 g of dried and grinded (1 mm) roots were macerated in 100 ml of ethyl acetate for 24 h at 50° C. The purified fraction of FDTA-I and FDTA-II was obtained by preparative HPLC and characterized by mass spectrometry. Ferulic acid and TA have been purchased commercially. In addition, it was also included in the test ziyuglycoside I, an active compound isolated from Sanguisorba officinalis roots known to hold various activities including increased expression of type I collagen. For the comparison, SORE was obtained as presented in example 1. The anti-collagenase inhibiting activity was measured by following the kinetics of collagenase-driven degradation of collagenase substrate: FALGPA (N-[3-(2-Furyl) acryloyl]-Leu-Gly-Pro-Ala) into FAL (N-[3-(2-Furyl) acryloyl]-Leu) and Gly-Pro-Ala.
Briefly, a volume of 100 μL of 1.5 mM solution of FALGPA in 50 mM tricine buffer with 10 mM calcium chloride and 400 mM sodium chloride, pH 7.5 (Bachem, 4006713.0025) was mixed with a volume of 10 μL of test sample or pure solvent of the test sample (positive control), followed by a volume of 10 μL of 0.05 mg/ml of Clostridium histolyticum collagenase (type IA, Sigma-Aldrich, C9891). To determine the rate of enzymatic conversion, the content of FAL was quantified at the beginning of the reaction and 30 minutes after its initialization by stopping the enzymatic conversion of FALGPA by EDTA. To quench the enzymatic conversion, a volume of 50 μL of the test sample was mixed with a volume of 50 μL of EDTA (0.2 M in water). The content of FAL in the samples was then quantified by UHPLC method optimized to separate FALGPA and FAL. The analysis was conducted using Kinetex Biphenyl reverse phase column (150 mm×2.1 mm, 2.6 μm, Phenomenex, Torrance, USA), maintained at 40° C. The mobile phase was composed of water containing 0.1% vol. of formic acid (A) and pure acetonitrile (B), delivered at 0.5 ml/min with the gradient of B phase as follows: 5-41% (0-9 min); 41-90% (9-9.05 min); hold at 90% (9.05-11.50 min); 90-5% (11.50-11.55 min), hold at 5% (11.55-14.50 min). Sample injection volume was 5 μL and FALGPA/FAL detection at 338 nm. Residual activity and the inhibition degree of collagenase in the presence of test sample X was then calculated using the following equation: […]
ActR %—residual activity; Inh %—inhibition degree; AUC—peak area of FAL; EchX tested sample; BL—blank.

[3] = mouse, in vivo; cited from earlier work
[4] = sample in 100% ethanol (table 14)
[5] = sample in pure propane-1,3-diol (table 13)

Compound	effect on hyaluronidase, in words ([1]; comment on table 13)	effect on hyaluronidase, in words ([1]; comment on table 14)	Residual activity of hyaluronidase (%) [1, 4] [%]	Residual activity of hyaluronidase (%) [1, 5] [%]	inhibition of collagenase IA (Inh %) [2]	Residual activity, ActR (%) of collagenase [2] [%]	toxicity in mice [3]
COc1cc(/C=C/C(=O)OC2C(O)CC3(C)C(CCC4(C)C3CC=C3C5C(C(=O)O)(CCC(C)C5(C)O)CCC34C)C2(C)C)ccc1O (centres unmarked) [FDTA-I, feruloylated derivative of tormentic acid]	acted as a hyaluronidase inhibitor	acted as hyaluronidase inhibitors	69	9.5	76%	24	–
C[C@@H]1CC[C@]2(C(=O)O)CC[C@]3(C)C(=CC[C@@H]4[C@@]5(C)C[C@@H](O)[C@H](O)C(C)(C)[C@@H]5CC[C@]43C)[C@@H]2[C@]1(C)O [TA, tormentic acid]	did not have any effect	–	–	98	do not have any effect	98	–
COc1cc(/C=C/C(=O)OC2C(O)CC3(C)C(CCC4(C)C3CC=C3C5C(C)C(C)CCC5(C(=O)O)CCC34C)C2(C)C)ccc1O (centres unmarked) [FDTA-II, feruloylated derivative of deoxy-tormentic acid]	–	acted as hyaluronidase inhibitors	89	–	36%	64	–
COc1cc(/C=C/C(=O)O)ccc1O [Ferulic acid, ferulic acid]	did not have any effect	–	–	103	do not have any effect	96	–
Oryzanol	–	–	–	–	–	–	did not demonstrate any toxicity
C[C@@H]1CC[C@]2(C(=O)O[C@@H]3O[C@H](CO)[C@@H](O)[C@H](O)[C@H]3O)CC[C@]3(C)C(=CC[C@@H]4[C@@]5(C)CC[C@H](O[C@@H]6OC[C@H](O)[C@H](O)[C@H]6O)C(C)(C)[C@@H]5CC[C@]43C)[C@@H]2[C@]1(C)O [Ziyuglycoside I]	–	did not have any effect	107	–	did not have any enzymatic inhibitory effect	106	–
